Source: patent US20230270723A1, “GLUCOKINASE ACTIVATOR FOR TREATING DIABETES WITH HEPATIC IMPAIRMENT” (HUA Medicine (Shanghai) Ltd., priority 2020, published 2023)
Read-outs that look alike come from different tables or passages of the source.

Assays:
[1] = Plasma protein binding (PPB) analysis, free drug percentage (fu); assay type: in vitro ADME; conditions: human, oral, 25 mg
Procedure: (§1) Eligible subjects were admitted to the Phase 1 study ward on either Day −2 or Day −1 to complete the baseline examination, and re-confirmed the inclusion/exclusion criteria by the investigator and fed a standardized meal after admission. Subjects were fasted at least 10 hours overnight while water was not deprived after the standardized dinner on Day −1, and received a single dose of dorzagliatin 25 mg (25 mg/tablet, 1 tablet) with 240 mL of warm water on the morning of Day 1. Subjects should start the standardized breakfast about 1 hour after administration and complete the meal within 30 minutes. Blood samples for PK and plasma protein binding (PPB) analyses were collected at specified time points within 1 hour pre-dose through 72 hours post-dose. The corresponding safety indicators at preset time points were detected for safety assessment.
(§2) Pharmacokinetic Evaluation • PK blood sampling time: Within 1 hour pre-dose and 0.25, 0.5, 1, 1.5, 2, 2.5, 3, 4, 6, 8, 12, 24, 36, 48 and 72 hours post-dose of dorzagliatin on Day 1. • PPB blood sampling time: Within 1 hour pre-dose and 1 hour post-dose of dorzagliatin. • Bioanalytical method: dorzagliatin in plasma was analyzed using a validated method of liquid chromatography-tandem mass spectrometry (LC-MS/MS). • PK parameters. Primary PK endpoint: Cmax, AUClast, AUCinf; Secondary PK endpoint (if applicable): Cmax,u, AUClast,u, AUCinf,u, Tmax, T1/2, CL/F, Vz/F, fu.

[2] = Safety evaluation (adverse events) after single oral dose of dorzagliatin 25 mg; assay type: in vivo, human
Procedure: Safety Evaluation • Physical examination: Evaluated at screening, baseline, Day 2, Day 3, discharge examination on Day 4. • Vital signs: Evaluated at screening, baseline, 24 and 48 hours post-dose, discharge examination on Day 4. • 12-lead ECG: Evaluated at screening, baseline, 24 hours and 48 hours post-dose, discharge examination on Day 4. Test once at each time point. • Hematology, blood biochemistry and urinalysis: Evaluated at screening, baseline, 24 hours, 48 hours and 72 hours post-dose. • Adverse events (AEs): All the subjects are observed for any AEs occurring from the signing of the ICF to the end of study. The clinical manifestations, severity, occurrence time, end time (if applicable), treatment measure, outcome and other information of each AE are recorded, and the correlation between an AE and the study drugs is judged.

[3] = Phase I single oral dose pharmacokinetic study of dorzagliatin in subjects with mild or moderate hepatic impairment and healthy subjects (plasma, LC-MS/MS, non-compartmental); assay type: in vivo, human; conditions: for AUC(0-inf) / AUC(0-t) / Cmax / half-life / Vd/F / Tmax: both sexes, human, plasma, po, 25 mg; for Vd/F: read-out: Vz/F; for Tmax: median
Procedure: This phase I study is to access the pharmacokinetics and safety of a single dose of dorzagliatin in subjects with mild or moderate hepatic impairment, and heathy subjects. […] The eligible subjects of Groups A and B are matched closely with the healthy subjects of Group C as to their sexes, ages (±5 yrs), and BMIs (±15%).
on Day −2 or −1, eligible subjects are admitted to a clinical research center (CRC). […], the subjects have no additional food after a standard dinner for at least 10 h. In the morning of Day 1, the subjects each receive dorzagliatin (25 mg) orally with empty stomach. One hour later, the subjects have a standardized breakfast. Blood samples are collected at the following time points: within 60 min pre-dose; and at 0.25, 0.5, 1, 1.5, 2, 2.5, 3, 4, 6, 8, 12, 24, 36, 48, and 72 h post-dose. The samples are analyzed using LC-MS/MS. The plasma concentration-time data for dorzagliatin are analyzed using a non-compartmental model to obtain PK parameters, including Cmax, AUClast, and AUCinf. An ANOVA analysis is performed on the data between Group C and Groups A and B.
Study design: This study was designed to evaluate the PK and safety of a single oral dose of dorzagliatin 25 mg in subjects with hepatic impairment compared with matched healthy subjects using an open label, single-center, parallel study design. The study population (as shown in Table 1) consisted of subjects with mild (group A) and moderate (group B) hepatic impairment and healthy subjects (group C) matched for sex, mean age, and mean BMI. The number of subjects who completed the study in each group was not less than 8, both male and female, and no less than 3 subjects of a single sex in each group.
as §1, §2

[4] = moderate hepatic impairment group
[5] = single oral dose 25 mg, healthy group, arithmetic mean
[6] = single oral dose 25 mg, mild hepatic impairment group, arithmetic mean
[7] = single oral dose 25 mg, moderate hepatic impairment group, arithmetic mean

`CC(C)C[C@@H](C(=O)Nc1ccn(C[C@@H](O)CO)n1)N1CC(Oc2ccccc2Cl)=CC1=O` [dorzagliatin, (S)-2-(4-(2-chlorophenoxy)-2-oxo-2,5-dihydro-1H-pyrrol-1-yl)-N-(1-((R)-2,3-dihydroxypropyl)-1H-pyrazol-3-yl)-4-methylpentanamide] showed a fraction unbound ([1]; free drug percentage in plasma, healthy group, arithmetic mean, read-out: fu) of 0.0646, a fraction unbound ([1]; free drug percentage in plasma, mild hepatic impairment group (N=7), arithmetic mean, read-out: fu) of 0.0719 and a fraction unbound ([1]; free drug percentage in plasma, moderate hepatic impairment group, arithmetic mean, read-out: fu) of 0.0832. For the same compound, the fraction unbound ([1]; healthy group, read-out: free drug percentage (fu), geometric mean) was 0.0639, the fraction unbound ([1]; mild hepatic impairment group, read-out: free drug percentage (fu), geometric mean) was 0.0712 and the fraction unbound ([1]; moderate hepatic impairment group, read-out: free drug percentage (fu), geometric mean) was 0.0829. The “number of AEs” value ([2]; all subjects) was 20, the “number of TEAEs” value ([2]; all subjects) was 18 and the “number of TEAEs considered possibly related to the study drug” value (“number … to the study drug” for short) ([2]; all subjects) was 10. The “subjects with TEAEs considered possibly related to the study drug” value (“subjects … to the study drug” for short) ([2]; all subjects) was 25.0%, the “SAEs, death, or significant TEAEs” value ([2]; all subjects, during the study) was “no SAEs, death, or significant TEAEs” and the “subjects who experienced TEAEs” value ([2]; all subjects, mild in most cases) was 33.3%. The “subjects who experienced AEs” value ([2]; all subjects, single oral dose 25 mg) was 33.3%, the “subjects who experienced AEs” value ([2]; healthy group) was “No subjects” and the “number of AEs” value ([2]; mild hepatic impairment group) was 13. The “number … to the study drug” value ([2]; mild hepatic impairment group) was 8, the “subjects who experienced AEs” value ([2]; mild hepatic impairment group) was 62.5% and the “subjects … to the study drug” value ([2]; mild hepatic impairment group) was 50.0%. The “number of AEs” value [2, 4] was 7, the “number … to the study drug” value [2, 4] was 2 and the “subjects who experienced AEs” value [2, 4] was 37.5%. For the same compound, the “subjects … to the study drug” value [2, 4] was 25.0%, the safety and tolerability ([2]; single oral dose, subjects with mild and moderate hepatic impairment) was “safe and well tolerated” and the AUC(0-inf) ([3]; free drug, single oral dose 25 mg, healthy group, arithmetic mean, read-out: AUCinf,u) was 123 ng·h/mL. It also gave an AUC(0-t) ([3]; free drug, single oral dose 25 mg, healthy group, arithmetic mean, read-out: AUClast,u) of 122 ng·h/mL, an AUC(0-inf) ([3]; free drug, single oral dose 25 mg, healthy group, read-out: AUCinf,u, geometric least squares mean) of 119 ng·h/mL and an AUC(0-t) ([3]; free drug, single oral dose 25 mg, healthy group, read-out: AUClast,u, geometric least squares mean) of 118 ng·h/mL. For the same compound, the AUC(0-inf) ([3]; free drug, single oral dose 25 mg, mild hepatic impairment group (N=7), arithmetic mean, read-out: AUCinf,u) was 170 ng·h/mL, the AUC(0-t) ([3]; free drug, single oral dose 25 mg, mild hepatic impairment group (N=7), arithmetic mean, read-out: AUClast,u) was 169 ng·h/mL and the AUC(0-inf) ([3]; free drug, single oral dose 25 mg, moderate hepatic impairment group, arithmetic mean, read-out: AUCinf,u) was 287 ng·h/mL. For the same compound, the AUC(0-t) ([3]; free drug, single oral dose 25 mg, moderate hepatic impairment group, arithmetic mean, read-out: AUClast,u) was 284 ng·h/mL, the AUC(0-inf) ([3]; free drug, single oral dose 25 mg, moderate hepatic impairment group, read-out: AUCinf,u, geometric least squares mean) was 282 ng·h/mL and the AUC(0-t) ([3]; free drug, single oral dose 25 mg, moderate hepatic impairment group, read-out: AUClast,u, geometric least squares mean) was 280 ng·h/mL. For the same compound, the Cmax ([3]; single oral dose 25 mg, fasted, healthy group, arithmetic mean, read-out: Cmax) was 325 ng/mL, the Cmax ([3]; single oral dose 25 mg, fasted, mild hepatic impairment group (Child-Pugh 5-6), arithmetic mean, read-out: Cmax) was 382 ng/mL and the Cmax ([3]; single oral dose 25 mg, fasted, moderate hepatic impairment group (Child-Pugh 7-9), arithmetic mean, read-out: Cmax) was 370 ng/mL. The half-life [3, 5] was 6.22 h, the AUC(0-inf) ([3]; single oral dose 25 mg, healthy group, arithmetic mean, read-out: AUCinf) was 1910 ng·h/mL and the AUC(0-t) ([3]; single oral dose 25 mg, healthy group, arithmetic mean, read-out: AUClast) was 1890 ng·h/mL. It also gave a Vd/F [3, 5] of 122 L, a Tmax ([3]; single oral dose 25 mg, healthy group) of 1.75 h and an AUC(0-inf) ([3]; single oral dose 25 mg, healthy group, read-out: AUCinf, geometric least squares mean) of 1870 ng·h/mL. It also gave an AUC(0-t) ([3]; single oral dose 25 mg, healthy group, read-out: AUClast, geometric least squares mean) of 1840 ng·h/mL, a Cmax ([3]; single oral dose 25 mg, healthy group, read-out: Cmax, geometric least squares mean) of 307 ng/mL and a half-life [3, 6] of 6.25 h. For the same compound, the AUC(0-inf) ([3]; single oral dose 25 mg, mild hepatic impairment group, arithmetic mean, read-out: AUCinf) was 2260 ng·h/mL, the AUC(0-t) ([3]; single oral dose 25 mg, mild hepatic impairment group, arithmetic mean, read-out: AUClast) was 2240 ng·h/mL and the Vd/F [3, 6] was 106 L. It also gave a Tmax ([3]; single oral dose 25 mg, mild hepatic impairment group) of 1.5 h, an AUC(0-inf) ([3]; single oral dose 25 mg, mild hepatic impairment group, read-out: AUCinf, geometric least squares mean) of 2190 ng·h/mL and an AUC(0-t) ([3]; single oral dose 25 mg, mild hepatic impairment group, read-out: AUClast, geometric least squares mean) of 2170 ng·h/mL. The Cmax ([3]; single oral dose 25 mg, mild hepatic impairment group, read-out: Cmax, geometric least squares mean) was 370 ng/mL, the half-life [3, 7] was 8.04 h and the AUC(0-inf) ([3]; single oral dose 25 mg, moderate hepatic impairment group, arithmetic mean, read-out: AUCinf) was 3450 ng·h/mL. It also gave an AUC(0-t) ([3]; single oral dose 25 mg, moderate hepatic impairment group, arithmetic mean, read-out: AUClast) of 3410 ng·h/mL, a Vd/F [3, 7] of 85.2 L and an AUC(0-t) ([3]; single oral dose 25 mg, moderate hepatic impairment group, mean, read-out: AUClast) of 3410 ng·h/mL. It also gave a Tmax ([3]; single oral dose 25 mg, moderate hepatic impairment group) of 1.5 h, an AUC(0-inf) ([3]; single oral dose 25 mg, moderate hepatic impairment group, read-out: AUCinf, geometric least squares mean) of 3410 ng·h/mL and an AUC(0-t) ([3]; single oral dose 25 mg, moderate hepatic impairment group, read-out: AUClast, geometric least squares mean) of 3370 ng·h/mL. For the same compound, the Cmax ([3]; single oral dose 25 mg, moderate hepatic impairment group, read-out: Cmax, geometric least squares mean) was 362 ng/mL, the “Cmax,u, geometric least squares mean” value ([3]; free drug, single oral dose 25 mg, healthy group) was 19.7 ng/mL and the “Cmax,u” value ([3]; free drug, single oral dose 25 mg, healthy group, arithmetic mean) was 21.0 ng/mL. The “Cmax,u” value ([3]; free drug, single oral dose 25 mg, mild hepatic impairment group (N=7), arithmetic mean) was 28.8 ng/mL, the “Cmax,u, geometric least squares mean” value ([3]; free drug, single oral dose 25 mg, moderate hepatic impairment group) was 30.0 ng/mL and the “Cmax,u” value ([3]; free drug, single oral dose 25 mg, moderate hepatic impairment group, arithmetic mean) was 30.7 ng/mL. The “increase of geometric mean of AUCinf compared with healthy subjects” value ([3]; mild hepatic impairment group) was roughly 17%, the “increase of geometric mean of AUClast compared with healthy subjects” value ([3]; mild hepatic impairment group) was “approximately 18%” and the “increase of geometric mean of Cmax compared with healthy subjects” value ([3]; mild hepatic impairment group) was “approximately 20%”. For the same compound, the “effect of mild hepatic impairment on clearance and exposure level” value ([3]; mild hepatic impairment vs healthy subjects) was “no significant effect”, the “increase of geometric mean of AUCinf compared with healthy subjects” value [3, 4] was roughly 83% and the “increase of geometric mean of AUClast compared with healthy subjects” value [3, 4] was roughly 83%. The “increase of geometric mean of Cmax compared with healthy subjects” value [3, 4] was “approximately 18%”, the “increase of geometric mean of free AUCinf compared with the healthy group” value [3, 4] was roughly 137% and the “increase of geometric mean of free AUClast compared with the healthy group” value [3, 4] was roughly 137%. For the same compound, the “clearance and exposure level in moderate hepatic impairment” value ([3]; moderate hepatic impairment vs healthy subjects) was “the drug clearance was decreased and the exposure level was increased”, the “increase of AUC of free drug compared with healthy subjects” value ([3]; moderate hepatic impairment, conclusion, AUC not further specified) was roughly 137% and the “absorption after oral administration” value ([3]; single oral dose 25 mg) was “rapidly absorbed”. The CL/F [3, 5] was 13.7 L/h, the CL/F [3, 6] was 11.8 L/h and the CL/F [3, 7] was 7.43 L/h.
